# According to patent publication US20030144352A1, “Antimuscarinic aerosol” (priority 2001, published 2003):
# Tests used:
# [1] = human serum; Nilvebrant et al., Life Sciences 60 (1997); cited from earlier work
# [2] = Plasma concentration of tolterodine after aerosol administration (inhalation) in mice; assay type: in vivo
# Method: Female BALB/C mice, weight range 19-22 g, were obtained from Charles River Laboratories (Kingston, N.C.). They received food and water ad libitum. All procedures in these studies were in compliance with the Animal Welfare Act Regulation, 9CFR Parts 1 and 2, Publication (NIH) 85-23, 1985.
# This nebulizer generates a mean aerosol particle size of 1.3 microns at a rate of approximately 0.25 ml/minute.
# Blood samples were taken via cardiac puncture under isoflurane anesthesia at 5, 15, 30, 60, 120, and 240 minutes after in treatment and at 2.5, 5, 15, 30, 60, and 120 minutes after aerosol drug treatment.
# The samples were collected in tubes containing EDTA and centrifuged at 12000×g for four minutes. Plasma was removed and stored at −70° C. until assay.
# Plasma samples were extracted via a liquid/liquid extraction technique. […] Chromatographically, the analyte and internal standard were resolved on a Zorbax ACE Phenyl column (2.1×50mm) using a gradient elution. The total analysis time was 4 minutes with a limit of quantization of 100 pg/mL.
# Female BALB/c mice, weight range 19-22 g, were obtained from Charles River Laboratories (Kingston, N.C.). They received food and water ad libitum. All procedures in these studies were in compliance with the Animal Welfare Act Regulation, 9CFR Parts 1 and 2, Publication (NIH) 85-23, 1985.
# The duration of aerosol treatment was five minutes. Blood samples were collected via cardiac puncture at 2.5, 5, 15, 30, 60, and 120 minutes following the end of the drug nebulization period.
# The samples from were collected in tubes containing EDTA and centrifuged at 12000×g for four minutes. Plasma was removed and stored at −70° C. until assay.
Structure (SMILES),Fraction unbound [1] [%],"Plasma levels ([2]; female BALB/c mice, inhalation of nebulized 0.1 mg/mL solution for five minutes, 2.5-120 minutes after nebulization)","Rise in tolterodine plasma concentration ([2]; mice, aerosol administration (FIGS. 1 and 2))","Absorption into the circulation ([2]; mice, inhalation of nebulized solutions at 0.1, 0.5 or 1.0 mg/mL)"
"CC(C)N(CC[C@H](c1ccccc1)c1cc(CO)ccc1O)C(C)C [5-HM, 2-[(1R)-3-(diisopropylamino)-1-phenylpropyl]-4-(hydroxymethyl)phenol]",36,–,–,–
"Cc1ccc(O)c([C@H](CCN(C(C)C)C(C)C)c2ccccc2)c1.O=C(O)C(O)C(O)C(=O)O [tolterodine L-tartrate, (R)-N,N-diisopropyl-3-(2-hydroxy-5-methylphenyl)-3-phenylpropanamine L-tartrate]",–,at or below-detection limits,–,–
"Cc1ccc(O)c([C@H](CCN(C(C)C)C(C)C)c2ccccc2)c1 [tolterodine, 2-[(1R)-3-(diisopropylamino)-1-phenylpropyl]-4-methylphenol]",3.7,–,within a few minutes a distinct and instant rise,rapidly absorbed into the circulation
